The results in this text go back to PMC12469269, “Investigating SMR Peptide Interactions with Breast Cancer-Associated Proteins” (International Journal of Molecular Sciences, 2025).

Entries after “also recorded” stand apart in the source; their conditions may differ.

One experiment concerns Mortalin (Grp-75). As to the kind of experiment: Co-immunoprecipitation / Western blot, Mortalin. The experiment is classed as binding, human. As to conditions: MDA-MB-231, MCF-7, BT474 lysates; anti-FLAG M2 resin, 4 °C overnight. On the procedure:
MDA-MB-231, MCF-7, and BT474 BC cells were grown in RPMI 1640 medium containing 10% FBS at 37 °C in a T-75 tissue culture flask and collected via centrifugation at 1000× g for 20 min at 4 °C. The cell pellet was resuspended in 1 mL of 1X PBS and transferred to a 1.5 mL Eppendorf tube. Following microcentrifugation at 1000× g for 1 min, the pellet was resuspended in 1 mL of α-FLAG Lysis buffer through gentle pipetting (50 mM Tris HCl, pH 7.4; 150 mM sodium chloride [NaCl]; 1 mM EDTA; and 1% Triton X-100, with 1 mM phenylmethyl sulfonyl fluoride [PMSF] and 10 µL/mL Protease Inhibitor Cocktail with mammalian cell and tissue extracts [PIC; Sigma-Aldrich] added immediately before use). The suspension was differentially microcentrifuged at 2000× g for 5 min and at 13,000× g for 10 min to pellet the cell debris and DNA, respectively, and the supernatant (hereafter referred to as the Lysate) was collected. In total, 1 milligram of Lysate protein and 1 milligram of the SMRwt or SMRmut peptide were added to 20 µL of Anti-FLAG® M2 Affinity Gel (resin; Sigma). […]
Cell proteins were analyzed using Western blot analysis, as described previously. […] Protein bands were detected using Western blotting Luminol Reagent (Santa Cruz Biotechnology, Inc., Santa Cruz, CA, USA). […]
A general note: A western blot detects proteins with antibodies after separation by electrophoresis.

The target in experiment [1] is T1, Recombinant Human Vimentin Protein (Homo sapiens, UniProt P08670).
T1 construct: purchased Novus Biologicals, LLC/R&D Systems 2105-VI-100
As to the kind of experiment: biochemical. The experiment is classed as binding. The conditions noted are these: SPR, 25 °C, HBS-P pH 7.4. From the text: (§1) We conducted SPR experiments to characterize and quantify the direct binding interactions between Nef and SMR peptides (the analytes) and the target proteins, Vimentin and Mortalin (the immobilized ligands). We did so by injecting the analytes at various concentrations over the chip surface with the immobilized ligands.
(§2) Recombinant Human Vimentin Protein, CF (catalog # 2105-VI-100), Recombinant Human GRP75/HSPA9B/Mortalin His Protein (catalog # NBC1-18380), and Recombinant Human HSPA8/HSC71/Hsc70 His Protein (Catalog # NBPI-30278) were purchased from Novus Biologicals, LLC/R&D Systems, Centennial, CO, USA. These proteins were used for SPR.
(§3) SPR experiments were conducted using a Biacore T200 instrument (Cytiva, Marlborough, MA, USA). CM5 sensor chips (Cytiva) were used to immobilize proteins and run subsequent binding assays at 25 °C. To investigate the direct binding of Nef and SMR peptides to Vimentin and Mortalin and SMR competition studies, both proteins were immobilized as ligands on the active flow cells (FCs) using standard amine coupling chemistry. One reference FC was prepared using the same surface chemistry, and no proteins were immobilized onto this reference FC. Vimentin was immobilized to a level of ~2500 RU to 7200 RU in the presence of 4 mM of HCl and Mortalin to a level of ~11,900 RU to 13,200 RU in the presence of 10 mM of sodium acetate buffer at pH 4.5. Analytes were then injected (Nef, SMR peptides, Mortalin peptides, and mixtures of […]). One 20 s pulse of 1:500 H3PO4 (H3PO4:ddH2O) was injected for surface regeneration. To investigate the direct binding of Mortalin peptides to Nef, Nef was immobilized as a ligand to ~450 RU using thiol coupling chemistry. A reference FC was created using a method similar to the one above. Mortalin peptides were then injected as analytes. One 20 s pulse of 1 M NaCl was injected for surface regeneration. HBS-P (10 mM Hepes, pH 7.4; 150 mM NaCl; 0.05% surfactant P20) was used as the immobilization running buffer during the immobilization of all ligands. HBS-P was also used to dilute analytes and as a running buffer during all analyte–ligand binding assays. SPR data used for analysis was both blank (signals due to HBS-P only) and reference-subtracted (signals corresponding to reference FCs). Sensorgrams recorded for kinetics analyses were fitted to a 1:1 binding model using the Biacore T200 evaluation software version 3.2.1. GraphPad Prism version 10.4.0 was used to plot all graphs.

In experiment [2] the target is T2, Recombinant Human GRP75/HSPA9B/Mortalin His Protein (Homo sapiens, UniProt P38646).
T2 construct: His; purchased Novus Biologicals, LLC/R&D Systems NBC1-18380
As to the kind of experiment: biochemical. The experiment is classed as binding. As to conditions: SPR, 25 °C, HBS-P pH 7.4.
Description: as §1, §2, §3

T2 sequence (P38646 47-679): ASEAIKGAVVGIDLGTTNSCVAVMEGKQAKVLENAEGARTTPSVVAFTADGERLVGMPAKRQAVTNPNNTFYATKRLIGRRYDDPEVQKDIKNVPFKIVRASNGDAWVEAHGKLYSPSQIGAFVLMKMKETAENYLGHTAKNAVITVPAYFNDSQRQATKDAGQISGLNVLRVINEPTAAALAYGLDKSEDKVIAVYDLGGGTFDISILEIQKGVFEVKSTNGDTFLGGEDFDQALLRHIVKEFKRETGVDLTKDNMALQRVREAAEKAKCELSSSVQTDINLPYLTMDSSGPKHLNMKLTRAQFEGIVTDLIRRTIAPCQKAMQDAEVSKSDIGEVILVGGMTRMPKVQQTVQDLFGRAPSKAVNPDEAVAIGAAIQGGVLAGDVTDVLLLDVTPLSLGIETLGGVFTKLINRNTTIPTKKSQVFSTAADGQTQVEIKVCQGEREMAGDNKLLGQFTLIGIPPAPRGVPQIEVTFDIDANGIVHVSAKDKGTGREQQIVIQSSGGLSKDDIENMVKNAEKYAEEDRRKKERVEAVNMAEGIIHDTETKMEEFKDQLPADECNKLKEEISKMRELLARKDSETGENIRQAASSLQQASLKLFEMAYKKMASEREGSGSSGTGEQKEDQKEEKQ
T1 sequence (P08670 whole entry): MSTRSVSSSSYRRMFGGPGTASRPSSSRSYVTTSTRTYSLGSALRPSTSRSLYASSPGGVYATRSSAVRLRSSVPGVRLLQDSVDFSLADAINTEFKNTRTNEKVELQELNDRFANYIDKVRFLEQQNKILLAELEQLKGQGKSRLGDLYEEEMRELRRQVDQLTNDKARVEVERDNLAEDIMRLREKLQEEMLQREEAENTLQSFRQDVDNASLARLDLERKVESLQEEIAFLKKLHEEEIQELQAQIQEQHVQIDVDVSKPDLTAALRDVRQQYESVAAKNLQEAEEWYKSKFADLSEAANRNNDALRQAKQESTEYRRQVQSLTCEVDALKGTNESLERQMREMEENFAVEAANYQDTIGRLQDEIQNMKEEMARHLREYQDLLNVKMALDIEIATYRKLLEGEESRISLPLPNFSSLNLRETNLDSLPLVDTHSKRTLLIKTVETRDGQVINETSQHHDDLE

For “^66Ala-Gly-Phe-Pro-Val^70 [SMRmut, 5-mer negative control, Val66 changed to Ala]”, the “co-immunoprecipitation with Mortalin, in words” value in the experiment on Mortalin (Grp-75) is “not SMRmut, co-immunoprecipitated with Mortalin”. Besides, the “binding response to Vimentin, in words” value in experiment [1] was “did not produce a meaningful positive binding response to Vimentin and Mortalin”. The “binding to Mortalin, in words” value in experiment [2] is “did not produce a meaningful positive binding response to Vimentin and Mortalin; also recorded: does not bind to the Mortalin protein”.
